# Patent US9169241B2, “Quinolinyloxyphenylsulfonamides” (Max-Planck-Gesellschaft Zur Forderung der Wissenschaften …, priority 2009, dated 2015)
# Where two headings read alike, the source gives them in different places.
# Columns and labels:
# C8161 = test: Apoptosis assay (Cellomics, nucleus condensation); format: cell-based; settings: Homo sapiens, Table III, read-out: Apoptosis induction in C8161
# From the text: (§1) The Cellomics BioApplication (Thermo Fischer Cellomics Products, Pittsburgh, Pa.) is an automated image analysis algorithm that provides detailed analysis of phenotypes related to apoptosis. As one of the most prominent characteristics of apoptotics cell a nucleus condensation takes place. This can be measured fluorescence signal intensity using a CCD camera on fully automated microscope system. The Cellomics system is able to quantify the fluorescence intensity per single nucleus and calculates the variation of signal intensity in each cell population. […] Additionally the number of detected cell decreases normally in apoptotic cell populations. In detail 5000 cell per 96 well were labeled with DNA intercalating dye (Hoechst 33342, Sigma, Steinheim, Germany) to visualize the nucleus in a fluorescence microscope under live conditions. The apoptosis assay was performed 24 h and 48 h after addition of compound at concentrations 12.5 μM, 6.25 μM, 3.125 μM, 1.56 μM, 0.78 μM, 0.39 μM as well as DMSO control for 48 h.
# Hs578T [1] = test: Apoptosis assay (Cellomics, nucleus condensation); format: cell-based; settings: Homo sapiens, Hs-578T, Table III, read-out: Apoptosis induction in Hs578T
# From the text: as §1
# SF126 = test: Apoptosis assay (Cellomics, nucleus condensation); format: cell-based; settings: Homo sapiens, SF-126, Table III, read-out: Apoptosis induction in SF126
# From the text: as §1
# SF763 = test: Apoptosis assay (Cellomics, nucleus condensation); format: cell-based; settings: Table III, read-out: Apoptosis induction in SF763
# From the text: as §1
# U118 = test: Apoptosis assay (Cellomics, nucleus condensation); format: cell-based; settings: Table III, read-out: Apoptosis induction in U118
# From the text: as §1
# U138 = test: Apoptosis assay (Cellomics, nucleus condensation); format: cell-based; settings: Table III, read-out: Apoptosis induction in U138
# From the text: as §1
# indicated cell line = test: Wound healing migration assay (Table IV); format: cell-based; settings: compounds at 12.5, 6.25, 3.125 μM, 48 h-72 h
# Protocol: This method mimics cell migration during wound healing in vivo. The basic steps involve creating a “wound” in a cell monolayer, capturing the images at the beginning and at regular intervals during cell migration to close the wound, and comparing the images to quantify the migration rate of the cells. In detail, 150000 cell/24 well have been seeded and allowed to form a monolayer overnight. Subsequently a “wound” or “scratch” has been performed with a 1000 μl pipette tip. The STDV of wound size is normally below 10% at time point t0. The assay was stopped by fixation with 0.05% Crystal violet/20% methanol when control scratches were closed. The assay was terminated between 48 h and 72 h depending on the migration potential of the indicated cell line. The “wounds” were visualized with a Zeiss Axiovert S100 microscope (Carl Zeiss UK, Welwyn Garden City, UK). The tested compounds were used at 12.5 μM, 6.25, 3.125 μM and DMSO control. IC50 values have been calculated as 50% wound size in between t0 and t48 or t72.
# Hs578T [2] = test: Matrigel outgrowth assay/branching assay; format: cell-based; settings: Homo sapiens, Hs-578T; HS578T cell line; Table Ib; read-out: Total branching inhibition in Matrigel HS578T
# Summary of the method: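 Matrigel 3 mg/ml, polymerized 1 h 37° C; 5000 cells/well + cmpd 3.125/1.56/0.78 μM or DMSO. Imaged 48/72/96 h, 5× objective. Positive = total branching block.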
# tumor cell = test: Matrigel outgrowth assay/branching assay (Table Va); format: cell-based
# Protocol: The Matrigel outgrowth assay is based on the ability of tumor cell to penetrate a solid gel of extracellular matrix proteins mimicking the metastasis formation in vivo. While cells with low invasive potential appear as roundish cell or cell cluster, cells with high invasive potential penetrate the Matrigel and form polymorphic structures. In detail 65 μl of Matrigel matrix (Matrigel™ Matrix, BD Biosciences, Bedford, Mass., USA) with a concentration of 3 mg/ml have been polymerized in 96 well plates for 1 h at 37° C. Subsequently 5000 cell/well were seeded into each well containing cell culture medium and indicated compound with concentrations of 3.125 μM, 1.56 μM and 0.78 μM as well as DMSO control. After 48 h, 72 h and 96 h images of cell were taken on an inverted microscope using a 5× objective (Zeiss Axiovert S100 microscope Carl Zeiss UK, Welwyn Garden City, UK). Only compound concentrations were total branching inhibition was evident were accounted as positive. Method was used as previously described, with some modifications (Thompson E W, et al. Association of increased basement membrane invasiveness with absence of estrogen receptor and expression of vimentin in human breast cancer cell lines. J Cell Physiol 1992; 150:534-44).
# cells = test: Boyden chamber migration assay (Table VI); format: cell-based; settings: Homo sapiens, Hs-578T, 16 h, Hs578T cells; 16 h migration
# Protocol: The Boyden chamber assay is based on a chamber of two medium-filled compartments separated by a microporous membrane of 8 μM (Cell culture insert 8.0 μM pore size, BD Biosciences, Bedford, Mass.). The boyden chamber migration assays were carried out according to the supplier's instructions. In general, 20000 cells are placed in the upper compartment with medium containing 0% FCS plus 0.1% BSA and are allowed to migrate 16 h through the pores of the membrane into the lower compartment, which is filled with cell culture medium containing 10% FCS as chemotactic agents. The cells remaining in the insert were removed with a cotton swab, and the cells on the bottom of the filter were fixed and counted. (Zhang Y X, et al. AXL is a potential target for therapeutic intervention in breast cancer progression. Cancer Res. 2008; 68:1905-15).
# viable cells in culture = test: Cell viability assay at 10 μM (CellTiter-Glo, Table VII); format: cell-based; settings: compound 10 μM, 72 h;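 also: graded A 0-20%; B 21-40%; C 41-60%; D over 60% viable cells relative to DMSO control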
# Summary of the method: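 Cells were seeded at 1000 cells/well in 96-well plates in 100 μl culture medium and incubated for 72 h with 10 μM compound or a DMSO control. ATP content, which reflects metabolically active and therefore viable cells, was then determined by CellTiter-Glo luminescence (Promega) per the manufacturer's instructions and expressed relative to the DMSO control.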
# [3] = Homo sapiens, C8161 cells, read-out: IC50 Wound healing Assay C8161
# [4] = SF763 cells, read-out: IC50 Wound healing Assay SF763
# [5] = Homo sapiens, C8161 cells, read-out: Total branching inhibition in Matrigel C8161
# [6] = Homo sapiens, Hs-578T, Hs578T cells, read-out: Total branching inhibition in Matrigel Hs578T
# [7] = U118 cells, read-out: Total branching inhibition in Matrigel U118
# [8] = U138 cells, read-out: Total branching inhibition in Matrigel U138
# [9] = Homo sapiens, HCT-116, HCT116 def, read-out: percentage (%) of viable cells HCT 116def
# [10] = Homo sapiens, HCT-116, HCT116 wt, read-out: percentage (%) of viable cells HCT 116wt
# [11] = Homo sapiens, HT-29, HT29, read-out: percentage (%) of viable cells HT29
# [12] = Homo sapiens, NCI-H358, H358, read-out: percentage (%) of viable cells H358
# [13] = Homo sapiens, NCI-H1650, H1650, read-out: percentage (%) of viable cells H1650
# [14] = Homo sapiens, NCI-H1666, H1666, read-out: percentage (%) of viable cells H1666
# [15] = Homo sapiens, NCI-H1975, H1975, read-out: percentage (%) of viable cells H1975
# [16] = Homo sapiens, NCI-H1993, H1993, read-out: percentage (%) of viable cells H1993
# [17] = Homo sapiens, A549, read-out: percentage (%) of viable cells A549
# [18] = Homo sapiens, HCC827, read-out: percentage (%) of viable cells HCC827
# [19] = Homo sapiens, SW480, read-out: percentage (%) of viable cells SW480
# [20] = RKO, read-out: percentage (%) of viable cells RKO
Compound,IC50 (C8161) [µM],IC50 (Hs578T [1]) [µM],IC50 (SF126) [µM],IC50 (SF763) [µM],IC50 (U118) [µM],IC50 (U138) [µM],IC50 (indicated cell line; [3]) [µM],IC50 (indicated cell line; [4]) [µM],IC50 (tumor cell; [5]) [µM],IC50 (tumor cell; [6]) [µM],IC50 (tumor cell; [7]) [µM],IC50 (tumor cell; [8]) [µM],IC50 (cells) [µM],IC50 (Hs578T [2]) [µM],viability at 10 µM (viable cells in culture; [9]) [%],viability at 10 µM (viable cells in culture; [10]) [%],viability at 10 µM (viable cells in culture; [11]) [%],viability at 10 µM (viable cells in culture; [12]) [%],viability at 10 µM (viable cells in culture; [13]) [%],viability at 10 µM (viable cells in culture; [14]) [%],other results
"COc1cc2c(Oc3ccc(NS(=O)(=O)c4ccc(F)c(F)c4F)cc3F)ccnc2cc1OCCCN1CCN(C)CC1 [Example 17, 2,3,4-Trifluoro-N-(3-fluoro-4-{6-methoxy-7-[3-(4-methyl-piperazin-1-yl)-propoxy]-quinolin-4-yloxy}-phenyl)-benzenesulfonamide]",≤ 12.5,≤ 12.5,≤ 12.5,≤ 12.5,12.5 to 50,≤ 12.5,≤ 12.5,12.5 to 50,≤ 5,≤ 5,≤ 5,5 to 50,≤ 5,≤ 10,,,,,,,melting point: 88 to 90 °C
"O=S(=O)(Nc1ccc(Oc2ccnc3cc(OCCCCN4CCOCC4)ccc23)c(F)c1)c1cc(F)ccc1F [Example 84, 2,5-Difluoro-N-{3-fluoro-4-[7-(4-morpholin-4-yl-butoxy)-quinolin-4-yloxy]-phenyl}-benzenesulfonamide]",≤ 12.5,≤ 12.5,≤ 12.5,≤ 12.5,≤ 12.5,≤ 12.5,≤ 12.5,12.5 to 50,≤ 5,≤ 5,≤ 5,≤ 5,≤ 5,≤ 10,0 to 20,0 to 20,0 to 20,0 to 20,0 to 20,41 to 60,viability at 10 µM (viable cells in culture; [15]): 21 to 40%; viability at 10 µM (viable cells in culture; [16]): 0 to 20%; viability at 10 µM (viable cells in culture; [17]): > 60%; viability at 10 µM (viable cells in culture; [18]): > 60%; viability at 10 µM (viable cells in culture; [19]): 0 to 20%; viability at 10 µM (viable cells in culture; [20]): 0 to 20%
"COc1cc2c(Oc3ccc(NS(=O)(=O)c4ccccc4F)cc3F)ccnc2cc1OCCCN1CCN(C)CC1 [Example 26, 2-Fluoro-N-(3-fluoro-4-{6-methoxy-7-[3-(4-methyl-piperazin-1-yl)-propoxy]-quinolin-4-yloxy}-phenyl)-benzenesulfonamide]",≤ 12.5,≤ 12.5,12.5 to 50,≤ 12.5,12.5 to 50,≤ 12.5,12.5 to 50,≤ 12.5,≤ 5,≤ 5,≤ 5,5 to 50,≤ 5,≤ 10,,,,,,,melting point: 185 to 186 °C

# Further lines, with some results ahead:
IC50 (C8161) [µM],IC50 (Hs578T [1]) [µM],IC50 (SF126) [µM],IC50 (SF763) [µM],IC50 (U118) [µM],IC50 (U138) [µM],IC50 (indicated cell line; [3]) [µM],IC50 (indicated cell line; [4]) [µM],IC50 (tumor cell; [5]) [µM],IC50 (tumor cell; [6]) [µM],IC50 (tumor cell; [7]) [µM],IC50 (tumor cell; [8]) [µM],IC50 (cells) [µM],Compound,IC50 (Hs578T [2]) [µM],viability at 10 µM (viable cells in culture; [9]) [%],viability at 10 µM (viable cells in culture; [10]) [%],viability at 10 µM (viable cells in culture; [11]) [%],viability at 10 µM (viable cells in culture; [12]) [%],viability at 10 µM (viable cells in culture; [13]) [%],viability at 10 µM (viable cells in culture; [14]) [%],other results
≤ 12.5,≤ 12.5,≤ 12.5,≤ 12.5,≤ 12.5,≤ 12.5,12.5 to 50,12.5 to 50,≤ 5,≤ 5,≤ 5,5 to 50,≤ 5,"COc1cc2nccc(Oc3ccc(NS(=O)(=O)c4ccccc4C(F)(F)F)cc3F)c2cc1OCCCN1CCN(C)CC1 [Example 86, N-(3-Fluoro-4-{7-methoxy-6-[3-(4-methyl-piperazin-1-yl)-propoxy]-quinolin-4-yloxy}-phenyl)-2-trifluoromethyl-benzenesulfonamide]",≤ 10,21 to 40,21 to 40,0 to 20,0 to 20,21 to 40,41 to 60,viability at 10 µM (viable cells in culture; [15]): 21 to 40%; viability at 10 µM (viable cells in culture; [16]): 0 to 20%; viability at 10 µM (viable cells in culture; [17]): > 60%; viability at 10 µM (viable cells in culture; [18]): 41 to 60%; viability at 10 µM (viable cells in culture; [19]): 21 to 40%; viability at 10 µM (viable cells in culture; [20]): 21 to 40%
≤ 12.5,≤ 12.5,≤ 12.5,≤ 12.5,12.5 to 50,≤ 12.5,≤ 12.5,12.5 to 50,≤ 5,≤ 5,≤ 5,5 to 50,≤ 5,"CN1CCN(CCCOc2ccc3nccc(Oc4ccc(NS(=O)(=O)c5ccccc5C(F)(F)F)cc4F)c3c2)CC1 [Example 85, N-(3-Fluoro-4-{6-[3-(4-methyl-piperazin-1-yl)-propoxy]-quinolin-4-yloxy}-phenyl)-2-trifluoromethyl-benzenesulfonamide]",≤ 10,21 to 40,0 to 20,21 to 40,21 to 40,21 to 40,41 to 60,viability at 10 µM (viable cells in culture; [15]): 21 to 40%; viability at 10 µM (viable cells in culture; [16]): 0 to 20%; viability at 10 µM (viable cells in culture; [17]): 41 to 60%; viability at 10 µM (viable cells in culture; [18]): 0 to 20%; viability at 10 µM (viable cells in culture; [19]): 0 to 20%; viability at 10 µM (viable cells in culture; [20]): 0 to 20%
